In paper PMC9769921, “Characteristics of the GlnH and GlnX Signal Transduction Proteins Controlling PknG-Mediated Phosphorylation of OdhI and 2-Oxoglutarate Dehydrogenase Activity in Corynebacterium glutamicum” (Microbiology Spectrum, 2022):
Positions count from the first letter of the chain named. Names and notes keep the numbering of the source. Values joined by “and” are separate entries in the source; they are usually repeats but may differ in a detail not shown here. Equal entries are not always repeated.

What was measured:
[1] = molecular target: His10-GlnHΔSP (GlnH) (Corynebacterium glutamicum, UniProt Q8NM30); test: Isothermal titration calorimetry with His10-GlnHΔSP; format: binding; settings: for binding to His10-GlnHΔSP / mean observed enthalpy change: ITC, 40 mM HEPES pH 7, 100 mM KCl; for binding to His10-GlnHΔSP: 10 mM MgCl2; for mean observed enthalpy change: 10 mM MgCl2, 25°C
From the text: Based on the similarity to the glutamine-binding protein GlnH of E. coli, which is part of the ABC transporter GlnHPQ ([28], [29]), the protein encoded by cg3045 in the C. glutamicum genome was initially annotated as a putative glutamine binding protein ([20]). […] To characterize the ligand binding properties of GlnH, a soluble protein version lacking the N-terminal signal peptide and the lipobox motif was overproduced in E. coli BL21(DE3) using the expression plasmid pET-TEV-glnHΔSP and purified by Ni^2+-chelate affinity chromatography. The His-tagged protein was used for interaction studies with different potential ligands using isothermal titration calorimetry (ITC). Based on the annotation, L-glutamine was first tested as a ligand, but no binding to His10-GlnHΔSP was observed under the conditions used (40 mM HEPES, pH 7, 100 mM KCl, 10 mM MgCl2). In contrast, L-aspartate and L-glutamate served as ligands for His10-GlnHΔSP, although with moderate affinity. […] In both cases, binding was exothermic with mean observed enthalpy changes of −18.5 ± 4.3 kJ/mol for L-aspartate and −17.5 ± 5.0 kJ/mol for L-glutamate. […] In Fig. 6, representative ITC experiments are shown for the five ligands tested.
Purified His10-GlnHΔSP was dialyzed overnight against a 500-fold excess of dialysis buffer (40 mM HEPES, 100 mM KCl, 10 mM MgCl2, pH 7.0). Stock solutions of the potential ligands L-aspartic acid, L-glutamic acid, L-asparagine, L-glutamine, and 2-oxoglutarate were prepared in dialysis buffer, and the pH was adjusted to pH 7.0 using KOH. ITC measurements were performed with a MicroCal PEAQ-ITC instrument (Malvern Panalytical, Malvern, Great Britain) operated at 25°C. Protein concentrations between 30 μM and 75 μM were used together with ligand concentrations of 7.5 mM to 50 mM. Prior to being filled with 300 μL protein solution, the measuring cell was rinsed with dialysis buffer, while the syringe was filled with 75 μL ligand solution. An ITC run was started with an initial injection of 0.4 μL followed by 12 injections of 3 μL each. In addition, control experiments with ligand solution titrated into the dialysis buffer were performed. The data were analyzed using MicroCal ITC analysis software (Malvern Panalytical), and a fixed 1:1 binding stoichiometry was assumed to determine the binding affinity.

[2] = system: C. glutamicum; set-up: method as in PMID 15870446; settings: cited from earlier work
[3] = molecular target: GlnH of C. glutamicum; set-up: method as in PMID 30065086; settings: change in intrinsic tryptophan fluorescence; cited from earlier work
[4] = molecular target: His10-GlnHcore (GlnH) (Corynebacterium glutamicum, UniProt Q8NM30); test: Intrinsic tryptophan fluorescence ligand binding, parental His10-GlnHcore
[5] = molecular target: M. tuberculosis GlnH; set-up: method as in PMID 30065086; settings: cited from earlier work
[6] = system: GlnH of C. glutamicum; set-up: method as in PMID 30065086; settings: cited from earlier work
[7] = molecular target: T1, OdhA subunit of the 2-oxoglutarate dehydrogenase complex (ODH) (Corynebacterium glutamicum (endogenous in C. glutamicum ΔodhI)) (UniProt Q8NRC3)
T1 sequence: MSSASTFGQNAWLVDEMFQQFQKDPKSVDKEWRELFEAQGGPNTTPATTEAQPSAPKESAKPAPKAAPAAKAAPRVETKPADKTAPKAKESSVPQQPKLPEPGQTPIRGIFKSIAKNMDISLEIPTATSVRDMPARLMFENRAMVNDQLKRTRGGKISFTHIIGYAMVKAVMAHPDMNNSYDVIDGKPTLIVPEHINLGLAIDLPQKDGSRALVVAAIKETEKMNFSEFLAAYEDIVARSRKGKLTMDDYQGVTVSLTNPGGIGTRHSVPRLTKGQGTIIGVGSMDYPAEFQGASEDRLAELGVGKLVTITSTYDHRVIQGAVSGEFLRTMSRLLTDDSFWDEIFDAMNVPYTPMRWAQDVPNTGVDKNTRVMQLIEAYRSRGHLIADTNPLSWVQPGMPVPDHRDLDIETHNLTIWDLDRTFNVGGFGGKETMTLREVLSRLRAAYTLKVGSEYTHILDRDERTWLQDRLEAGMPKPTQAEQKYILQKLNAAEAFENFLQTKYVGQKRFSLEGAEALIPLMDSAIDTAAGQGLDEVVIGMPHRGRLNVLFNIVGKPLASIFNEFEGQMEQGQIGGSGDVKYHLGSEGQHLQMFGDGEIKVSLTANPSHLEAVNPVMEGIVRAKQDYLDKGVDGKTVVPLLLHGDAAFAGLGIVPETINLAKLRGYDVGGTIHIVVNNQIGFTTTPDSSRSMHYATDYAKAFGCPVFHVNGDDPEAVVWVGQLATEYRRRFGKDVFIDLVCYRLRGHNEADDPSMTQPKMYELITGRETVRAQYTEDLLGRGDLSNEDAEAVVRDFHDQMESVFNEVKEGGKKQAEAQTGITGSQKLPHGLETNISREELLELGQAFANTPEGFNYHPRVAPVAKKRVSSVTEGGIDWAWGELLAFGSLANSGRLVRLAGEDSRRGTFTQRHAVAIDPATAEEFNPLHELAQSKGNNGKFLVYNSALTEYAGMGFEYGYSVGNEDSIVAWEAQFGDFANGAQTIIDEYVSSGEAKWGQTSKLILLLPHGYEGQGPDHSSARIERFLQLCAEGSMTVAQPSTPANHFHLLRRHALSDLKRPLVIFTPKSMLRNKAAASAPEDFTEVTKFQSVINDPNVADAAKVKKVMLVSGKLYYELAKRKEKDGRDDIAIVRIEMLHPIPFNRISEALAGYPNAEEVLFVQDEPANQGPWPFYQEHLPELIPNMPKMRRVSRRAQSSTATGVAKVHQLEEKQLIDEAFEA

[8] = molecular target: 2-oxoglutarate dehydrogenase complex (ODH) (Corynebacterium glutamicum, UniProt Q8NRC3); test: ODH activity of cell-free extracts of C. glutamicum ΔodhI with added OdhI variants (photometric, NADH formation); settings: 100% = 135 ± 12 nmol min^−1 (mg protein)^−1 without added OdhI
Chain of 2-oxoglutarate dehydrogenase complex (ODH) (Q8NTE1 whole entry, one chain of several): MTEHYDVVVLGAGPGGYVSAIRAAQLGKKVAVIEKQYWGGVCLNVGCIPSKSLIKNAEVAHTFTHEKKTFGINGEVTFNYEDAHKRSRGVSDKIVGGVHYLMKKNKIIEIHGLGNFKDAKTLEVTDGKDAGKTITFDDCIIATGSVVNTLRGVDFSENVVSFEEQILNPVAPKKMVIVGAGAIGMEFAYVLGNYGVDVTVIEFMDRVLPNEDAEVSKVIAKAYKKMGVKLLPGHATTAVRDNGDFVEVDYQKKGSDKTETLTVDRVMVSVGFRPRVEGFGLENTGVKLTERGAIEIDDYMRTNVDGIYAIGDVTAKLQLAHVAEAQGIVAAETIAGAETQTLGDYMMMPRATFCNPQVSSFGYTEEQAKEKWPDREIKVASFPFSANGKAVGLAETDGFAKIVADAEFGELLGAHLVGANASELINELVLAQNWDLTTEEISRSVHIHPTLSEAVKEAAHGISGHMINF
Chain of 2-oxoglutarate dehydrogenase complex (ODH) (Q8NNJ2 whole entry, one chain of several, further chain): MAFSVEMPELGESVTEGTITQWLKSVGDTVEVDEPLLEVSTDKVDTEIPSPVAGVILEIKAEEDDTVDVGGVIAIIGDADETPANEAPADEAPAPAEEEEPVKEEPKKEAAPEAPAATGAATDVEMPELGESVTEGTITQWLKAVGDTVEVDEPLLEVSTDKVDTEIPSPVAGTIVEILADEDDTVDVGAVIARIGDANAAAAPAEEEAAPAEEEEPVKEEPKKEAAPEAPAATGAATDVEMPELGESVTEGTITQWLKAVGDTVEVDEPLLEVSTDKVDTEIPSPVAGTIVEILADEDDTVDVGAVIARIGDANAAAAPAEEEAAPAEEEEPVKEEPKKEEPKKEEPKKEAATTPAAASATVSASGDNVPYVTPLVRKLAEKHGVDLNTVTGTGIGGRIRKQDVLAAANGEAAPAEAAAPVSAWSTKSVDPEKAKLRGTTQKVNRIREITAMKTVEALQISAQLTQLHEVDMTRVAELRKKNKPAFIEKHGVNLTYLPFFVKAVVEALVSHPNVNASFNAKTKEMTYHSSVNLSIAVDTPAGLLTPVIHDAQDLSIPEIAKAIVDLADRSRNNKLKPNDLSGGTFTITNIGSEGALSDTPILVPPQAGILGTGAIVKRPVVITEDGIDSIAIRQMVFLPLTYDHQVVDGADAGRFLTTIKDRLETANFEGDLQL
Method: Determination of the ODH activity in the presence of different OdhI variants was carried out using a photometric assay following NADH formation as described previously ([6], [8]).

Chain of His10-GlnHΔSP (GlnH) (Q8NM30 entry or part of it, stated change not applied): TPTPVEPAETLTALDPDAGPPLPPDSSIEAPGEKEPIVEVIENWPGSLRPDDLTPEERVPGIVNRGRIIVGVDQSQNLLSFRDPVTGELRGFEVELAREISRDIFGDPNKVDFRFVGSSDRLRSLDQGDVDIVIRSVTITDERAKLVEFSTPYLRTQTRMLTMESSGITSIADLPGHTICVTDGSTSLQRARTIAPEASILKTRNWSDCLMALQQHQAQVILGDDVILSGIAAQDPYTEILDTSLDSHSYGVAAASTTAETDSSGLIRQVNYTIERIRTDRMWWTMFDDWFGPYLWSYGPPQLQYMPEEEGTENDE
Chain of His10-GlnHcore (GlnH) (Q8NM30 entry or part of it): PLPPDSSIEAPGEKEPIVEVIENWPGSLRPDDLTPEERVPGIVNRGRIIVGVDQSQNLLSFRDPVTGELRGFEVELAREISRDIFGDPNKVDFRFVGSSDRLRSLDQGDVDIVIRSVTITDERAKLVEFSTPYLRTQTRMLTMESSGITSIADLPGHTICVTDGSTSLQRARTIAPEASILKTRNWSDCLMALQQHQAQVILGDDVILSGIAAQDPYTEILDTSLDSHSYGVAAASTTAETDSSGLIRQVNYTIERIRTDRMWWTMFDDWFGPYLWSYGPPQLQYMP

O=C(O)CCC(=O)C(=O)O [2-oxoglutarate]
binding to His10-GlnHΔSP [1]: no interaction

CC[C@@H](CO)NCCN[C@@H](CC)CO [Ethambutol]
effect on glutamate secretion [2]: trigger glutamate secretion

NC(=O)C[C@H](N)C(=O)O [L-asparagine]
binding to His10-GlnHΔSP [1]: no interaction

N[C@@H](CC(=O)O)C(=O)O [L-aspartate]
Kd [3]: 550 ± 90 µM
Kd [4]: 242 µM
Kd [5]: 4.8 ± 0.6 µM
Kd [1]: 264 ± 14.6 µM
mean observed enthalpy change [1]: -4.42 ± 1.03 kcal/mol
effect on thermal stability of GlnH [6]: increased the thermal stability

N[C@@H](CCC(=O)O)C(=O)O [L-glutamate]
Kd [3]: 2060 µM
Kd [4]: 1460 µM
Kd [5]: 15.2 ± 5.7 µM
Kd [1]: 1260 µM
mean observed enthalpy change [1]: -4.18 ± 1.2 kcal/mol
effect on thermal stability of GlnH [6]: increased the thermal stability

NC(=O)CC[C@H](N)C(=O)O [L-glutamine]
binding to His10-GlnHΔSP [1]: no binding

B1: OdhI (natural protein)
chain: MSDNNGTPEPQVETTSVFRADLLKEMESSTGTAPASTGAENLPAGSALLVVKRGPNAGARFLLDQPTTTAGRHPESDIFLDDVTVSRRHAEFRINEGEFEVVDVGSLNGTYVNREPRNAQVMQTGDEIQIGKFRLVFLAGPAE
residual ODH activity of cell-free extracts of C. glutamicum ΔodhI after adding 0.38 nM or 1.9 nM purified OdhI (activity without OdhI = 100%) [7]: 3%

B2: OdhI-R87P (natural protein)
chain: B1 chain with R87P
relative specific ODH activity (residual activity) ([8]; 0.38 nM protein added): 83.1%
residual ODH activity of cell-free extracts of C. glutamicum ΔodhI after adding 0.38 nM or 1.9 nM purified OdhI-R87P (activity without OdhI = 100%) [7]: > 50%

B3: OdhI-R87A (natural protein)
chain: B1 chain with R87A
relative specific ODH activity (residual activity) ([8]; 0.38 nM protein added): 68.9%
residual ODH activity of cell-free extracts of C. glutamicum ΔodhI after adding 0.38 nM or 1.9 nM purified OdhI-R87A (activity without OdhI = 100%) [7]: > 50%

B4: OdhI: 15-kDa forkhead-associated (FHA) domain-containing protein of C. glutamicum that inhibits ODH; purified, untagged (protein)
chain: B1 chain
modifications: left off: His10, N-terminal, cleaved
relative specific ODH activity (residual activity) ([8]; 0.38 nM protein added): 18.6%
relative specific ODH activity (residual activity) ([8]; 1.9 nM protein added): 3% and 3.1%
